Reference: patent US9364388B2, “Methods of treatment with nitric oxide at pressures greater than one atmosphere” (Barry University, priority 2012, dated 2016)

What was measured:
[1] = mixture of 1000 ppm nitric oxide and 21% oxygen; cited from earlier work
[2] = Percutaneous absorption of nitric oxide, in vitro Franz human skin finite dose model; assay type: in vitro ADME; settings: delivered at a pressure of 1.2 atm as compared with normal pressure; Franz diffusion cell, human skin (FIG. 10)
Procedure: The percutaneous absorption of nitric oxide is evaluated using a Franz human skin finite dose model. The in vitro Franz human skin finite dose model has proven to be a valuable tool for the study of percutaneous absorption and the determination of the pharmacokinetics of topically applied drugs. The model uses human ex vivo cadaver or surgical skin mounted in a specially designed diffusion chamber allowing the skin to be maintained at a temperature and humidity that match typical in vivo conditions. A finite dose of a formulation is applied to the outer surface of the skin and drug absorption is measured by monitoring its rate of appearance in the reservoir solution bathing the inner surface of the skin. In this study, the applied dose is a controlled continuous exposure to a gas. Data defining total absorption, rate of absorption, as well as skin content can be accurately determined in this model. […]
A single center, open label study of nitric oxide formulations is performed. […] The rate and extent of penetration of nitric oxide, at normal pressure and at greater than 1 atm of pressure (e.g., 1.2×, 1.5×, 1.8×, 2.0×, 2.2×, etc.) for continuous exposure durations of 30 and 60 minutes is determined for the amount penetrating through the skin and into the different layers of the skin using a Franz Diffusion Cell. […]

[N]=O [NO, nitric oxide]
time for half of the nitric oxide to react to become nitric dioxide [1]: about 3.5 minutes
NO penetration in the epidermis and stratum corneum [2]: increased
